Results from US10859565B2, “High throughput 3D assay for immune cell and drug homing, migration and tumor cytotoxicity” (Corning Incorporated, priority 2017, dated 2020).

How the values were obtained:
Format in all cases: cell-based
NK-92MI cells = test: NK-92MI (NK) cell migration through HTS Transwell towards A549/GFP 3D tumor spheroids, flow cytometry; settings: 24 hours
Description: (§1) A549/GFP Cells (Cell Biolabs, Inc. Cat. No. AKR-209), were seeded into 96 well spheroid microplates (Corning Cat. No. 4515) at 2,000 cells per well in Iscove's Modification of DMEM (IMDM) (Corning Cat. No. 10-016-CM) supplemented with 10% fetal bovine serum (FBS) (Corning Cat. No. 35-010-CV). The next day, medium was replaced with […] IMDM 10% FBS containing 30 ng/mL of Human SDF-1 alpha (SDF-1α)/CXCL12 (Shenandoah Biotechnology Inc™ Cat. No. 100-20) or vehicle control. NK92-MI cells were stained for one hour with 80 μM CellTracker™ Blue CMHC Dye (Molecular Probes™ Cat. No. C2110) while simultaneously being treated with 2 μg/mL prostaglandin E2 (PGE2) (Tocris Cat. No. 2296) or vehicle control in IMDM without serum for an hour. NK-92MI cells were then re-suspended in serum free IMDM and seeded into the apical chamber of the inserts at 50,000 cells/insert. After 24 hours, inserts were removed and spheroid microplates were processed for flow cytometry. […] Cells were then analyzed via flow cytometry utilizing the Miltenyi Biotec MacsQuant®.
(§2) NK-92MI migration and tumoricidal activity of A549/GFP cells was assessed utilizing the commercially available Corning HTS 96 Transwell inserts with the Corning 96 well spheroid microplate, as shown in FIG. 4 and FIG. 5. […]

LN229 spheroids = test: Cytotoxicity of LN229 spheroids after direct culture with compounds; settings: 48 hours of direct culture; N=12 wells per concentration
A549/GFP tumor cells = test: NK induced cytotoxicity of A549/GFP tumor cells cultured in 3D; settings: NK cells exposed to SDF-1α without PGE2; 24 hours
Description: as §1, §2

## CCCCC[C@H](O)/C=C/[C@H]1[C@H](O)CC(=O)[C@@H]1C/C=C\CCCC(=O)O [PGE2, prostaglandin E2]
NK-92MI cells; NK cells exposed to 2 μg/mL PGE2 for an hour
  NK migration: significantly decreased

## COc1cc(/C=C/C(=O)N2CCC=CC2=O)cc(OC)c1OC [Piperlongumine]
LN229 spheroids
  cytotoxicity of LN229 spheroids: dose dependent cytotoxicity

## SDF-1α
NK-92MI cells; 30 ng/mL SDF-1α present with the tumor spheroid in the spheroid microplate
  NK migration: significantly increased
A549/GFP tumor cells
  viability of A549/GFP tumor cells (tumoricidal activity of NK cells): lowest viability
